Converted amounts (≈) assume the structure as drawn. Read-outs that look alike come from different tables or passages of the source.
Experiments:
S. marcescens ATCC 13880 = assay: Antibacterial activity: MIC/MBC, MIC with PAβN, disc-diffusion; type: cell-based, Serratia marcescens; details: Serratia marcescens, ATCC13880
Experimental: (§1) Direct antimicrobial activity was determined against the following standard strains: (1) Gram-positive cocci: methicillin-sensitive Staphylococcus aureus ATCC 6538P (MSSA), methicillin-resistant S. aureus subsp. aureus ATCC 43300 (MRSA), S. epidermidis ATCC 12228, Enterococcus faecium ATCC 6057, E. faecalis ATCC 29212, Bacillus subtilis ATCC 6633; (2) Gram-negative bacteria from Enterobacteriales order: Klebsiella pneumoniae ATCC 13883, Escherichia coli ATCC 25922, Enterobacter cloacae DSM 6234, Proteus mirabilis ATCC 12453, Serratia marcescens ATCC 13880; (3) Gram-negative non-fermentative rods: Acinetobacter baumannii ATCC 19606, Pseudomonas aeruginosa ATCC 27853, Stenotrophomonas maltophilia ATCC 12714, S. maltophilia ATCC 13637, Burkholderia cepacia ATCC 25416, Bordetella bronchiseptica ATCC 4617; (4) yeasts: Candida albicans ATCC 90028, C. krusei ATCC 6258, C. parapsilosis ATCC 22019, C. tropicalis (Castellani) Berkhout ATCC 750, C. tropicalis IBA 171, C. guilliermondii IBA 155, and Saccharomyces cerevisiae ATCC 9763. Moreover, 5 clinical strains of methicillin-resistant S. aureus were also included: NMI 664 K, NMI 1576 K, NMI 1712 K, NMI 1991 K, and NMI 2541 K. All strains were stored at −80 °C. Prior to testing, each bacterial strain was subcultured twice on tryptic soy agar TSA (bioMerieux) medium and yeast strains on Sabouraud dextrose agar (bioMerieux) for 24–48 h at 30 °C to ensure viability. The antimicrobial activity was evaluated as previously described[26] by the disc-diffusion method and the MIC determination assays according to the EUCAST (ref. [71] and [72]) and CLSI (ref. [53] and [73]) recommendations. Assessment of bactericidal (MBC) and fungicidal (MFC) activities was performed according to the CLSI recommendations.[54,74] […] The new benzosiloxaboroles were dissolved in DMSO (Sigma).
(§2) Considering that the MDR efflux pumps often contribute to Gram-negative rod resistance, the MIC values of studied agents, with or without the pump inhibitor, PAβN (20 μg mL^−1) (Sigma), were determined.[75] The MIC was determined using Mueller–Hinton II broth medium (MHB) (Becton Dickinson) by the broth microdilution method, according to the CLSI guideliness.[53] To minimize the influence of PAβN on the destabilization of bacterial cell covers, the tests were conducted in the presence of 1 mM MgSO4 (Sigma).[76] At least a 4-fold reduction in the MIC value after the addition of PAβN was considered significant.[56,77]

B. cepacia ATCC 25416 = assay: Antibacterial activity: MIC/MBC, disc-diffusion; type: cell-based, Burkholderia cepacia; details: Burkholderia cepacia, ATCC25416
Experimental: as §1, §2

C. albicans ATCC 90028 = assay: Antifungal activity: MIC/MFC, disc-diffusion; type: cell-based, Candida albicans; details: for MIC: Candida albicans, ATCC90028
Experimental: (§3) Direct antimicrobial activity was determined against the following standard strains: (1) Gram-positive cocci: methicillin-sensitive Staphylococcus aureus ATCC 6538P (MSSA), methicillin-resistant S. aureus subsp. aureus ATCC 43300 (MRSA), S. epidermidis ATCC 12228, Enterococcus faecium ATCC 6057, E. faecalis ATCC 29212, Bacillus subtilis ATCC 6633; (2) Gram-negative bacteria from Enterobacteriales order: Klebsiella pneumoniae ATCC 13883, Escherichia coli ATCC 25922, Enterobacter cloacae DSM 6234, Proteus mirabilis ATCC 12453, Serratia marcescens ATCC 13880; (3) Gram-negative non-fermentative rods: Acinetobacter baumannii ATCC 19606, Pseudomonas aeruginosa ATCC 27853, Stenotrophomonas maltophilia ATCC 12714, S. maltophilia ATCC 13637, Burkholderia cepacia ATCC 25416, Bordetella bronchiseptica ATCC 4617; (4) yeasts: Candida albicans ATCC 90028, C. krusei ATCC 6258, C. parapsilosis ATCC 22019, C. tropicalis (Castellani) Berkhout ATCC 750, C. tropicalis IBA 171, C. guilliermondii IBA 155, and Saccharomyces cerevisiae ATCC 9763. Moreover, 5 clinical strains of methicillin-resistant S. aureus were also included: NMI 664 K, NMI 1576 K, NMI 1712 K, NMI 1991 K, and NMI 2541 K. All strains were stored at −80 °C. Prior to testing, each bacterial strain was subcultured twice on tryptic soy agar TSA (bioMerieux) medium and yeast strains on Sabouraud dextrose agar (bioMerieux) for 24–48 h at 30 °C to ensure viability. The antimicrobial activity was evaluated as previously described[26] by the disc-diffusion method and the MIC determination assays according to the EUCAST (ref. [71] and [72]) and CLSI (ref. [53] and [73]) recommendations. Assessment of bactericidal (MBC) and fungicidal (MFC) activities was performed according to the CLSI recommendations.[54,74] The following reference agents were used: fluconazole (in the case of fungi), linezolid (for Gram-positive bacteria), and nitrofurantoin (for Gram-negative rods). The new benzosiloxaboroles were dissolved in DMSO (Sigma).

E. coli ATCC 25922 = assay: Antibacterial activity: MIC/MBC, MIC with PAβN, disc-diffusion; type: cell-based, Escherichia coli; details: for MIC: Escherichia coli, ATCC25922; for -fold reduction of MIC in the presence of PAβN: PAβN 20 μg mL^−1, MHB + 1 mM MgSO4
Experimental: as §1, §2

C. tropicalis ATCC 750 = assay: Antifungal activity: MIC/MFC, disc-diffusion; type: cell-based; details: for MIC: Candida tropicalis, ATCC750
Experimental: as §3

[1] = test system: C. parapsilosis ATCC 22019; assay: Antifungal activity: MIC/MFC, disc-diffusion; type: cell-based; details: for MIC: Lodderomyces parapsilosis, ATCC22019
Experimental: as §3

C. tropicalis IBA 171 = assay: Antifungal activity: MIC/MFC, disc-diffusion; type: cell-based; details: for MIC: Candida tropicalis, IBA171
Experimental: as §3

[2] = test system: C. guilliermondii IBA 155; assay: Antifungal activity: MIC/MFC, disc-diffusion; type: cell-based
Experimental: as §3

[3] = test system: B. bronchiseptica ATCC 4617; assay: Antibacterial activity: MIC/MBC, disc-diffusion; type: cell-based, Bordetella bronchiseptica; details: Bordetella bronchiseptica, ATCC4617
Experimental: as §1, §2

K. pneumoniae ATCC 13883 = assay: Antibacterial activity: MIC/MBC, MIC with PAβN, disc-diffusion; type: cell-based, Klebsiella pneumoniae; details: Klebsiella pneumoniae, ATCC13883
Experimental: as §1, §2

S. cerevisiae ATCC 9763 = assay: Antifungal activity: MIC/MFC, disc-diffusion; type: cell-based, Saccharomyces cerevisiae; details: for MIC / MFC: Saccharomyces cerevisiae, ATCC9763; for diameter of inhibition zone / MFC: S. cerevisiae ATCC 9763; for diameter of inhibition zone: (-) = zone not observed, paper discs 9 mm
Experimental: as §3

[4] = S. marcescens ATCC 13880, read-out: MIC
[5] = B. cepacia ATCC 25416, read-out: MIC
[6] = E. coli ATCC 25922, read-out: MIC
[7] = Meyerozyma guilliermondii, IBA155, read-out: MIC
[8] = B. bronchiseptica ATCC 4617, read-out: MIC
[9] = K. pneumoniae ATCC 13883, read-out: MIC

Compound	MIC (S. marcescens ATCC 13880; [4]) [µg/mL]	MIC (B. cepacia ATCC 25416; [5]) [µg/mL]	MIC (C. albicans ATCC 90028; read-out: MIC) [µg/mL]	MIC (E. coli ATCC 25922; [6]) [µg/mL]	MIC (C. tropicalis ATCC 750; read-out: MIC) [µg/mL]	MIC ([1]; read-out: MIC) [µg/mL]	MIC (C. tropicalis IBA 171; read-out: MIC) [µg/mL]	MIC [2, 7] [µg/mL]	MIC [3, 8] [µg/mL]	MIC (K. pneumoniae ATCC 13883; [9]) [µg/mL]	MIC (S. cerevisiae ATCC 9763; read-out: MIC) [µg/mL]	further results
C[Si]1(C)OB(O)c2ccc(SC(=O)c3ccc(C(F)(F)F)cc3)c(F)c21 [Compound 25, S-(7-Fluoro-3-hydroxy-1,1-dimethyl-1,3-dihydrobenzo[c][1,2,5]oxasilaborol-6-yl) 4-(trifluoromethyl)benzothioate]	> 50	> 50	50 (≈ 125 µM)	> 50	> 50	> 50	50 (≈ 125 µM)	50 (≈ 125 µM)	> 50	> 50	25 (≈ 62.5 µM)	–
C[Si]1(C)OB(O)c2cc(F)c(SC3CC(=O)N(c4ccc(Br)c(C(F)(F)F)c4)C3=O)c(F)c21 (centres unmarked) [Compound 16, 1-(4-Bromo-3-(trifluoromethyl)phenyl)-3-((5,7-difluoro-3-hydroxy-1,1-dimethyl-1,3-dihydrobenzo[c][1,2,5]oxasilaborol-6-yl)thio)pyrrolidine-2,5-dione]	> 200	> 200	50 (≈ 88.3 µM)	> 200	50 (≈ 88.3 µM)	50 (≈ 88.3 µM)	50 (≈ 88.3 µM)	12.5 (≈ 22.1 µM)	200 (≈ 353 µM)	> 200	6.25 (≈ 11 µM)	diameter of inhibition zone (C. albicans ATCC 90028; C. albicans ATCC 90028, (-) = zone not observed, paper discs 9 mm): 25 mm; diameter of inhibition zone (C. tropicalis ATCC 750; C. tropicalis ATCC 750, (-) = zone not observed, paper discs 9 mm): 19 mm; diameter of inhibition zone ([1]; C. parapsilosis ATCC 22019, (-) = zone not observed, paper discs 9 mm): 24 mm; diameter of inhibition zone (C. tropicalis IBA 171; C. tropicalis IBA 171, (-) = zone not observed, paper discs 9 mm): 19 mm; diameter of inhibition zone ([2]; C. guilliermondii IBA 155, (-) = zone not observed, paper discs 9 mm): 30 mm; MFC ([2]; Meyerozyma guilliermondii, IBA155, C. guilliermondii IBA 155): 50 µg/mL (≈ 88.3 µM); diameter of inhibition zone (S. cerevisiae ATCC 9763): 35 mm; MFC (S. cerevisiae ATCC 9763): 50 µg/mL (≈ 88.3 µM)
CCOP(=O)(OCC)Sc1c(F)cc2c(c1F)[Si](C)(C)OB2O [Compound 24, S-(5,7-Difluoro-3-hydroxy-1,1-dimethyl-1,3-dihydrobenzo[c][1,2,5]oxasilaborol-6-yl) O,O-diethyl phosphorothioate]	–	–	–	–	–	–	–	–	–	–	–	MIC (S. marcescens ATCC 13880): > 400 µg/mL; MIC (B. cepacia ATCC 25416): > 400 µg/mL; MIC (C. albicans ATCC 90028): > 400 µg/mL; MIC (E. coli ATCC 25922): > 400 µg/mL; MIC (C. tropicalis ATCC 750): > 400 µg/mL; MIC [1]: > 400 µg/mL; MIC (C. tropicalis IBA 171): > 400 µg/mL; MIC ([2]; Meyerozyma guilliermondii, IBA155): > 400 µg/mL; MIC [3]: > 400 µg/mL; MIC (K. pneumoniae ATCC 13883): > 400 µg/mL; MIC (S. cerevisiae ATCC 9763): > 400 µg/mL
C[Si]1(C)OB(O)c2ccc(S)c(F)c21 [Compound 2e, 7-Fluoro-6-mercapto-1,1-dimethylbenzo[c][1,2,5]oxasilaborol-3(1H)-ol]	> 100	> 100	> 100	> 100	> 100	> 100	> 100	> 100	> 100	> 100	> 100	–
C[Si]1(C)OB(O)c2cc(F)c(SCCC#N)c(F)c21 [Compound 6, 3-((5,7-Difluoro-3-hydroxy-1,1-dimethyl-1,3-dihydrobenzo[c][1,2,5]oxasilaborol-6-yl)thio)propanenitrile]	> 400	> 400	> 400	> 400	> 400	> 400	> 400	> 400	> 400	> 400	> 400	-fold reduction of MIC in the presence of PAβN (E. coli ATCC 25922; E. coli ATCC 25922): 2 -fold
C[Si]1(C)OB(O)c2cc(F)c(S(=O)(=O)Cl)c(F)c21 [Compound 26, 5,7-Difluoro-3-hydroxy-1,1-dimethyl-1,3-dihydrobenzo[c][1,2,5]oxasilaborole-6-sulfonyl chloride]	> 400	> 400	> 400	> 400	> 400	> 400	> 400	> 400	> 400	> 400	> 400	–
C[Si]1(C)OB(O)c2ccc(SCCS(=O)(=O)c3ccccc3)c(F)c21 [Compound 21, 7-Fluoro-1,1-dimethyl-6-((2-(phenylsulfonyl)ethyl)thio)benzo[c][1,2,5]oxasilaborol-3(1H)-ol]	> 400	> 400	400 (≈ 1010 µM)	> 400	> 400	400 (≈ 1010 µM)	400 (≈ 1010 µM)	> 400	> 400	> 400	6.25 (≈ 15.8 µM)	diameter of inhibition zone (E. coli ATCC 25922; E. coli ATCC 25922, (-) = zone not observed, paper discs 9 mm): 11 mm; -fold reduction of MIC in the presence of PAβN (E. coli ATCC 25922; E. coli ATCC 25922): 16 -fold; diameter of inhibition zone (S. cerevisiae ATCC 9763): 30 mm; MFC (S. cerevisiae ATCC 9763): 100 µg/mL (≈ 252 µM)
C[Si]1(C)OB(O)c2cc(F)c(SCCC(=O)N3CCOCC3)c(F)c21 [Compound 8, 3-((5,7-Difluoro-3-hydroxy-1,1-dimethyl-1,3-dihydrobenzo[c][1,2,5]oxasilaborol-6-yl)thio)-1-morpholinopropan-1-one]	> 400	> 400	> 400	> 400	> 400	> 400	> 400	> 400	> 400	> 400	> 400	–
